Columns and labels:
[1] = test system: 4910 glioma cells; assay: Matrigel invasion assay (modified Boyden chamber), 4910; format: cell-based, human; conditions: 4910
Protocol: (§1) The in vitro invasiveness of 4910, 5310 and U87 glioma cells and MDAMB231 and ZR71 breast cancer cells in the presence of specified concentrations of compounds were assessed using a modified Boyden chamber assay. Cells were treated with these compounds for 48 h. 1×10^6 cells were suspended in 600 μl of serum-free medium supplemented with 0.2% BSA and placed in the upper compartment of the transwell chambers (Corning Costar Fischer Scientific Cat #07-200-158, Pittsburgh Pa.) coated with Matrigel (0.7 mg/ml). The lower compartment of the chamber was filled with 200 μl of serum medium and the cells were allowed to migrate for 24 h. After incubation, the cells were fixed and stained with Hema-3 and quantified as previously described (Mohanam et al. 1993). The migrated cells were imaged microscopically to determine the reduction in invasiveness induced by the compounds of this invention.

[2] = test system: AKT, ERK and Pi3k in U87 glioma cells; assay: Western blot analysis, U87; format: cell-based
Protocol: (§2) Western blot analysis of 4910, 5310 and U87 glioma cells and MDAMB231 and ZR71 breast cancer cells in the presence of specified concentrations of compounds were assessed as per standard protocols. Cells were treated with AN019, AN024 or Temozolomide at the specified concentrations. 24 h after treatment, cells were collected and cell lysates extracted. Equal quantities of proteins were fractionated by SDS-PAGE. The fractionated proteins were blotted on to nylon membranes and immunoprobed for AKT, ERK and Pi3k. Breast cancer cell protein isolates were additionally immunoprobed for EGFR, ErbB1, ErbB2 and ErbB3.

[3] = test system: ZR71 breast cancer cells; assay: Matrigel invasion assay (modified Boyden chamber), ZR-71; format: cell-based; conditions: ZR-71
Protocol: as §1

[4] = test system: 4910 human glioma xenograft cells; assay: Glioma radiation study, nude mice intracranially implanted with 4910 cells; format: in vivo
Protocol: Nude mice were intracranially implanted with 4910 human glioma xenograft cells (1×10^6 cells). Ten days after implantation mice were treated with AN019, AN024 or temozolomide with or without radiation (5 Gy/week). The experiment was terminated at day 40 post implantation.

[5] = test system: AKT, ERK and Pi3k in 4910 glioma cells; assay: Western blot analysis, 4910; format: cell-based, human
Protocol: as §2

[6] = test system: 5310 glioma cells; assay: In vitro angiogenic assay, 5310 conditioned media on human dermal endothelial cells; format: cell-based; conditions: 5310 cells
Protocol: (§3) The in vitro angiogenesis of 4910, 5310 and U87 glioma cells and MDAMB231 and ZR71 breast cancer cells in the presence of specified concentrations of compounds were determined as follows, cells (2×10^4/well) were seeded in 8-well chamber slides and were treated with various concentrations of test compounds. After a 24 h incubation period, the conditioned media was removed and added to a 4×10^4 human dermal endothelial cell (monolayer in 8-well chamber slides) and the human dermal endothelial cells were allowed to grow for 72 h. Cells were then fixed in 3.7% formaldehyde and stained with H&E and photographed.

[7] = test system: U87 glioma cells; assay: Matrigel invasion assay (modified Boyden chamber), U87; format: cell-based; conditions: U87
Protocol: as §1

[8] = test system: K562; assay: ED50 (po) in leukemic mice (K562); conditions: po, mice
[9] = test system: 5310 glioma cells; assay: Matrigel invasion assay (modified Boyden chamber), 5310; format: cell-based; conditions: 5310
Protocol: as §1

[10] = test system: AKT, ERK and Pi3k in ZR71 breast cancer cells; assay: Western blot analysis, ZR71; format: cell-based
Protocol: as §2

[11] = test system: ZR71 breast cancer cells; assay: In vitro angiogenic assay, ZR-71 conditioned media on human dermal endothelial cells; format: cell-based; conditions: ZR-71 cells; radiation not distinguished
Protocol: as §3

[12] = test system: U87 glioma cells; assay: In vitro angiogenic assay, U87 conditioned media on human dermal endothelial cells; format: cell-based
Protocol: as §3

[13] = test system: Baf3 murine leukemia cells (T315I); assay: Blast cell count in nude mice implanted with Baf3 T315I cells; format: in vivo; conditions: Baf3T315I; Imatinib 10 mg/kg, AN019 20 mg/kg, AN024 20 mg/kg, oral gavage or ip; day 42
Source text: (§4) Blood smears were obtained via the tail vein or via the femoral vein every 6th day and blast cells counted and graphically represented.
(§5) Abdominal swelling and decrease in activity was monitored daily, blood smear taken via the tail vein or the femoral vein every 6th day and H&E stained as per standard protocols. 42 days after implantation, mice were sacrificed and spleens harvested.
(§6) Nude mice were intraperitoneally implanted with Baf3 mutant cells (wt, T315I, M351T or E255K). […] Blood was drawn from the femoral vein or tail vein every 6th day and blast cell count determined and graphically represented.

[14] = test system: 4910 glioma cells; assay: In vitro angiogenic assay, 4910 conditioned media on human dermal endothelial cells; format: cell-based; conditions: 4910 cells
Protocol: as §3

[15] = test system: K562 luciferase expressing cells; assay: Leukemic survival study in nude mice implanted with K562 luciferase expressing cells; format: in vivo
Source text: K562 luciferase expressing cells were implanted intraperitoneally into nude mice; the mice were scanned using the xenogeny IVIS image station after ip injections of luciferin does determine implantations. Drug treatment was started as in previous studies day 15 after implantation. The animals were given treatment till day 42, after which drug treatment was stopped and survival of the animals determined as per the animal care regulations. […] Drug treatment was withdrawn on day 42 post implantation and survival of animals determined.

[16] = test system: MDAMB231 breast cancer cells; assay: Matrigel invasion assay (modified Boyden chamber), MDA-MB-231; format: cell-based; conditions: MDA-MB-231
Protocol: as §1

[17] = test system: Baf3 murine leukemia cells (M351T); assay: Blast cell count in nude mice implanted with Baf3 M351T cells; format: in vivo; conditions: Baf3M351T; Imatinib 10 mg/kg, AN019 20 mg/kg, AN024 20 mg/kg, oral gavage or ip; day 42
Source text: as §4, §5, §6

[18] = test system: MDAMB231 breast cancer cells; assay: In vitro angiogenic assay, MDA-MB-231 conditioned media on human dermal endothelial cells; format: cell-based; conditions: MDA-MB-231 cells
Protocol: as §3

[19] = test system: Baf3 murine leukemia cells (E255K); assay: Blast cell count in nude mice implanted with Baf3 E255K cells; format: in vivo; conditions: Baf3 E225K (E255K); Imatinib 10 mg/kg, AN019 20 mg/kg, AN024 20 mg/kg, oral gavage or ip; day 42
Source text: as §4, §5, §6

[20] = not given; remark: listed apart in the source

Question: With `Cc1ccc(NC(=O)c2cccc(S(=O)(=O)C(F)(F)F)c2)cc1Nc1nccc(-c2cccnc2)n1` [AN024] as the compound, how does the “±Change in invasion after radiation” value [1] read?
Answer: −17%

Question: And the “ERK levels (Western blot)” value ([2]; U87, after radiation)?
Answer: decrease was enhanced

Question: And the “ERK levels (Western blot)” value ([2]; U87, without radiation)?
Answer: slight decrease in ERK levels

Question: And the “±Change in invasion after radiation” value [3]?
Answer: −3%

Question: What about the “Animals cured / no observable intracranial tumor” value ([4]; of 10 animals, with radiation (5 Gy/week), day 40 post implantation) of the same compound?
Answer: 7 animals

Question: And the “Animals cured / complete absence of intracranial tumours” value ([4]; of 10 animals, without radiation, day 40 post implantation)?
Answer: 3 animals

Question: What about the “Intracranial tumour size and appearance” value ([4]; with radiation (5 Gy/week)) of the same compound?
Answer: well defined surgically respectable tumours

Question: And the “Intracranial tumour size and appearance” value ([4]; without radiation)?
Answer: tumours were well defined and not showing diffuse edges

Question: What about the “AKT levels (Western blot)” value ([5]; 4910, after radiation) of the same compound?
Answer: decrease in AKT levels was enhanced

Question: What about the “AKT levels (Western blot)” value ([5]; 4910, without radiation) of the same compound?
Answer: decrease in AKT levels

Question: What about the Inhibition of angiogenesis ([6]; after radiation) of the same compound?
Answer: angiogenesis further inhibited

Question: What about the Inhibition of angiogenesis ([6]; control conditions (without radiation)) of the same compound?
Answer: inhibition of angiogenesis

Question: And the “±Change in invasion after radiation” value [7]?
Answer: −24%

Question: What about the “ED50 (po) Mice” value [8] of the same compound?
Answer: 10 mg/kg

Question: What about the “±Change in invasion after radiation” value [9] of the same compound?
Answer: +5%

Question: And the “AKT levels (Western blot)” value ([10]; ZR71, after radiation)?
Answer: decrease in AKT expression

Question: What about the “AKT levels (Western blot)” value ([10]; ZR71, unirradiated) of the same compound?
Answer: did not show any significant change

Question: And the “PI3k levels (Western blot)” value ([10]; ZR71, with radiation)?
Answer: decrease in PI3k levels

Question: And the “MTD Mice” value?
Answer: 500 mg/kg

Question: What about the Inhibition of angiogenesis [11] of the same compound?
Answer: complete inhibition of angiogenesis

Question: And the Inhibition of angiogenesis ([12]; after radiation)?
Answer: increase in inhibition

Question: What about the Inhibition of angiogenesis ([12]; without radiation) of the same compound?
Answer: significant retardation in angiogenesis

Question: What about the “Blast cell count in blood smears” value [13] of the same compound?
Answer: significant decrease in blast cell count

Question: What about the Inhibition of angiogenesis ([14]; after radiation) of the same compound?
Answer: significant inhibition of angiogenesis

Question: What about the Inhibition of angiogenesis ([14]; without radiation) of the same compound?
Answer: significant inhibition of angiogenesis

Question: And the “Blast cell count from blood smears, effectiveness after withdrawal of drug treatment” value ([15]; drug treatment withdrawn on day 42)?
Answer: showed effectiveness after withdrawal of drug treatment

Question: And the “Animals showing no signs of leukemia / complete absence of leukemic symptoms” value ([15]; of 10 animals, drug withdrawn day 42, AN024 on day 55)?
Answer: 8 animals

Question: And the Mortality ([15]; treatment day 15 to day 42, then withdrawn, 10 animals)?
Answer: mortality on day 38

Question: And the “±Change in invasion after radiation” value [16]?
Answer: +4%

Question: And the “Blast cell count in blood smears” value [17]?
Answer: significant decrease in blast cell count

Question: And the Inhibition of angiogenesis ([18]; after radiation)?
Answer: only a slight inhibition

Question: And the Inhibition of angiogenesis ([18]; control condition (without radiation))?
Answer: only a slight inhibition

Question: What about the “Blast cell count in blood smears” value [19] of the same compound?
Answer: significant decrease in blast cell count

Question: And the “LD50 (po) Mice” value [20]?
Answer: 1440 mg/kg

Source: patent publication US8067422B2, “Crystal form of phenylamino pyrimidine derivatives” (Natco Pharma Limited, priority 2008, dated 2011)
